The text below walks through data of patent US20260265329A1, “POLYPEPTIDE AND DERIVATIVE THEREOF, COMPOSITION, AND USE THEREOF” (HANGZHOU SCIWIND BIOSCIENCES CO., LTD., priority 2023, published 2026).

The target of one data set is T1, human amylin receptors (Homo sapiens, UniProt O60896+P30988).
T1 construct: host or cells: CHO-K1/Ga15/AMY3 cells, further stably transfected with a CRE-luciferase plasmid
T1 sequence (P30988 25-474): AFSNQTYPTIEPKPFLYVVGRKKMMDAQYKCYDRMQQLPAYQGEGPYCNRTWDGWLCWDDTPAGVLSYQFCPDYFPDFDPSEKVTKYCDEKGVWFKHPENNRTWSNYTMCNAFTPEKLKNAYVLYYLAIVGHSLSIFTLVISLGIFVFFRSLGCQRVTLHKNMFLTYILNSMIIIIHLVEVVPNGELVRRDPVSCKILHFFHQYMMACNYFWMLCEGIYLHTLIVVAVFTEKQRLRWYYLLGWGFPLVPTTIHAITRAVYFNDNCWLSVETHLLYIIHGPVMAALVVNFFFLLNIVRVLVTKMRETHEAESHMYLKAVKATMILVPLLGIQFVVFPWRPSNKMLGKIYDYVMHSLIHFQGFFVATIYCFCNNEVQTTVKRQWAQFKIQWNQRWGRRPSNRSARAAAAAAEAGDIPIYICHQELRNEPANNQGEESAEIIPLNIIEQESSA
T1 sequence (O60896 24-148 partner): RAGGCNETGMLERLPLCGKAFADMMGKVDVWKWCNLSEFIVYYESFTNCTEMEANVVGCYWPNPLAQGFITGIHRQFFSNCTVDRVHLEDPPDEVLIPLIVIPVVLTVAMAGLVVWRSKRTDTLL
The experiment in a line: Luciferase assay in stably transfected amylin receptor/CRE-luc CHO cell line. It counts as cell-based. As to conditions: for Relative activity: EC50 ratio of Cagrilintide to the compound, Cagrilintide 100%; for EC50: amylin receptor/CRE-luc CHO cells, 24 hours incubation, luminescence.

Data set [1] can be described thus: Heat accelerated stability assay, 40° C., detection on 10 d and 20 d. The format is physicochemical. As to conditions: 1 mg/mL, pH about 7.4, 40° C. As for the experimental part:
The derivatives (1 mg/mL) were mixed with sodium dihydrogen phosphate (1.42 mg/mL) and dissolved in ultrapure water. After adjusting pH to about 7.4 with hydrochloric acid/sodium hydroxide, the solution was filtered into a sterilized vial in a clean bench using a 0.22 μm sterile filter. The vial was then capped and placed into the stability test chamber at 40° C. Detections were made on 10d and 20d, and during the assay changes in the characteristics and properties of the polypeptides were observed and recorded. The sample was then centrifuged for 3 min at 10000 rpm at 4° C., and the supernatant was transferred to a liquid phase sample vial for detecting the concentration and purity of the polypeptides using liquid phase chromatography described as below.
Flow rate: 1.0 mL/min; Autosampler temperature: 25° C.; Column temperature: 25° C.; Detection wavelength: 214 nm; Mobile phase A: 110 mM phosphate buffer (pH 5.8): ACN=90:10; Mobile phase B: ACN: IPA: H2O=85:5:10; and Gradient of elution listed in Table 6: […]

Data set [2] deals with T2, human amylin receptor on CHO-K1/Ga15/AMY3 cells (amylin receptor/CRE-luc cell line) (human) (UniProt P30988).
T2 sequence (looked up) 1: T1 sequence (P30988 25-474)
T2 sequence (looked up) 2: T1 sequence (O60896 24-148 partner)
Put plainly: cell-based or functional assay.

Starred links: 1 amine or outer side, 2 acyl side, 3 side chain; linkers in the order of their positions; H or OH if unused. Non-standard residues stand in square brackets, D forms with d. Residues, ends and D or L forms follow the SMILES beside them. *: point of attachment. C20 diacid = O=C(O)CCCCCCCCCCCCCCCCCCC(=O)*; C18 diacid = O=C(O)CCCCCCCCCCCCCCCCC(=O)*; C16 diacid = O=C(O)CCCCCCCCCCCCCCC(=O)*; γGlu = O=C(O)[C@H](CCC(=O)[*:2])N[*:1]; Hyp = O=C(O)[C@@H]1C[C@@H](O)CN1; NMeD = CN[C@@H](CC(=O)O)C(=O)O; NMeN = CN[C@@H](CC(N)=O)C(=O)O

Turning to `CC[C@H](C)[C@H](NC(=O)[C@@H]1CCCN1C(=O)[C@H](CCCCN)NC(=O)[C@H](CC(C)C)NC(=O)[C@H](CCC(=O)O)NC(=O)[C@H](CCC(=O)O)NC(=O)[C@H](CO)NC(=O)[C@H](CO)NC(=O)[C@H](Cc1c[nH]cn1)NC(=O)[C@H](CCCNC(=N)N)NC(=O)[C@H](CC(C)C)NC(=O)[C@H](Cc1ccccc1)NC(=O)[C@H](CC(=O)O)NC(=O)[C@H](C)NC(=O)[C@H](CC(C)C)NC(=O)[C@H](CCCNC(=N)N)NC(=O)[C@H](CCC(N)=O)NC(=O)[C@@H](NC(=O)[C@H](C)NC(=O)[C@H](C)NC(=O)[C@@H](NC(=O)[C@H](CO)NC(=O)[C@H](CC(C)C)NC(=O)[C@H](CCC(N)=O)NC(=O)[C@H](CO)NC(=O)[C@H](C)NC(=O)CC[C@H](NC(=O)CCCCCCCCCCCCCCCCCCC(=O)O)C(=O)O)[C@@H](C)O)[C@@H](C)O)C(=O)N[C@@H](CC(C)C)C(=O)N1CCC[C@H]1C(=O)N1CCC[C@H]1C(=O)N[C@H](C(=O)N[C@@H](CC(N)=O)C(=O)N[C@H](C(=O)NCC(=O)N[C@@H](CO)C(=O)N[C@@H](CC(N)=O)C(=O)N[C@H](C(=O)N1C[C@H](O)C[C@H]1C(N)=O)[C@@H](C)O)C(C)C)[C@@H](C)O` [M42] ({C20 diacid-γGlu}-ASQLSTAATQRLADFLRHSSEELKPILPPTNVGSNT[Hyp]-NH2), at human amylin receptors, the Relative activity amounted to 32% and the EC50 turned out to be 0.28 nM. Besides, the “Reduction in purity, 10 d” value in data set [1] stood at 4.8%.

With `CC[C@H](C)[C@H](NC(=O)[C@@H]1CCCN1C(=O)[C@H](CCCCN)NC(=O)[C@H](CC(C)C)NC(=O)[C@H](CC(N)=O)N(C)C(=O)[C@H](CC(N)=O)NC(=O)[C@H](CO)NC(=O)[C@H](CO)NC(=O)[C@H](Cc1c[nH]cn1)NC(=O)[C@H](CCCNC(=N)N)NC(=O)[C@H](CC(C)C)NC(=O)[C@H](Cc1ccccc1)NC(=O)[C@H](CC(=O)O)NC(=O)[C@H](C)NC(=O)[C@H](CC(C)C)NC(=O)[C@H](CCCNC(=N)N)NC(=O)[C@H](CCC(N)=O)NC(=O)[C@@H](NC(=O)[C@H](C)NC(=O)[C@H](C)NC(=O)[C@@H](NC(=O)[C@H](CO)NC(=O)[C@H](CC(C)C)NC(=O)[C@H](CCC(N)=O)NC(=O)[C@H](CO)NC(=O)[C@H](C)NC(=O)CC[C@H](NC(=O)CCCCCCCCCCCCCCCCCCC(=O)O)C(=O)O)[C@@H](C)O)[C@@H](C)O)C(=O)N[C@@H](CC(C)C)C(=O)N1CCC[C@H]1C(=O)N1CCC[C@H]1C(=O)N[C@H](C(=O)N[C@@H](CC(N)=O)C(=O)N[C@H](C(=O)NCC(=O)N[C@@H](CO)C(=O)N[C@@H](CC(N)=O)C(=O)N[C@H](C(=O)N1C[C@H](O)C[C@H]1C(N)=O)[C@@H](C)O)C(C)C)[C@@H](C)O` [M44] ({C20 diacid-γGlu}-ASQLSTAATQRLADFLRHSSN[NMeN]LKPILPPTNVGSNT[Hyp]-NH2), on human amylin receptors, the Relative activity is given as 130% and the 50% effective concentration (EC50) stood at 0.1 nM. The “Reduction in purity, 10 d” value in data set [1] is on record as 21.09%. Moreover, in data set [1] (20 d), the “Reduction in purity, 20 d” value was 37.35%.

As for `CC[C@H](C)[C@H](NC(=O)[C@@H]1CCCN1C(=O)[C@H](CCCCN)NC(=O)[C@H](CC(C)C)NC(=O)[C@H](CC(=O)O)N(C)C(=O)[C@H](CC(N)=O)NC(=O)[C@H](CO)NC(=O)[C@H](CO)NC(=O)[C@H](Cc1c[nH]cn1)NC(=O)[C@H](CCCNC(=N)N)NC(=O)[C@H](CC(C)C)NC(=O)[C@H](Cc1ccccc1)NC(=O)[C@H](CC(=O)O)NC(=O)[C@H](C)NC(=O)[C@H](CC(C)C)NC(=O)[C@H](CCCNC(=N)N)NC(=O)[C@H](CCC(N)=O)NC(=O)[C@@H](NC(=O)[C@H](C)NC(=O)[C@H](C)NC(=O)[C@@H](NC(=O)[C@H](CO)NC(=O)[C@H](CC(C)C)NC(=O)[C@H](CCC(N)=O)NC(=O)[C@H](CO)NC(=O)[C@H](C)NC(=O)CC[C@H](NC(=O)CCCCCCCCCCCCCCCCCCC(=O)O)C(=O)O)[C@@H](C)O)[C@@H](C)O)C(=O)N[C@@H](CC(C)C)C(=O)N1CCC[C@H]1C(=O)N1CCC[C@H]1C(=O)N[C@H](C(=O)N[C@@H](CC(N)=O)C(=O)N[C@H](C(=O)NCC(=O)N[C@@H](CO)C(=O)N[C@@H](CC(N)=O)C(=O)N[C@H](C(=O)N1C[C@H](O)C[C@H]1C(N)=O)[C@@H](C)O)C(C)C)[C@@H](C)O` [M45] ({C20 diacid-γGlu}-ASQLSTAATQRLADFLRHSSN[NMeD]LKPILPPTNVGSNT[Hyp]-NH2), at human amylin receptors, the Relative activity was 129% and the EC50 is 0.07 nM. In addition, the “Reduction in purity, 10 d” value in data set [1] came out at 6.54%.

B1: M37 (peptide)
peptide: {C18 diacid-γGlu}-ASQLSTAATQRLADFLRHSSNNLKPILPPTNVGSNT[Hyp]-NH2
SMILES: CC[C@H](C)[C@H](NC(=O)[C@@H]1CCCN1C(=O)[C@H](CCCCN)NC(=O)[C@H](CC(C)C)NC(=O)[C@H](CC(N)=O)NC(=O)[C@H](CC(N)=O)NC(=O)[C@H](CO)NC(=O)[C@H](CO)NC(=O)[C@H](Cc1c[nH]cn1)NC(=O)[C@H](CCCNC(=N)N)NC(=O)[C@H](CC(C)C)NC(=O)[C@H](Cc1ccccc1)NC(=O)[C@H](CC(=O)O)NC(=O)[C@H](C)NC(=O)[C@H](CC(C)C)NC(=O)[C@H](CCCNC(=N)N)NC(=O)[C@H](CCC(N)=O)NC(=O)[C@@H](NC(=O)[C@H](C)NC(=O)[C@H](C)NC(=O)[C@@H](NC(=O)[C@H](CO)NC(=O)[C@H](CC(C)C)NC(=O)[C@H](CCC(N)=O)NC(=O)[C@H](CO)NC(=O)[C@H](C)NC(=O)CC[C@H](NC(=O)CCCCCCCCCCCCCCCCC(=O)O)C(=O)O)[C@@H](C)O)[C@@H](C)O)C(=O)N[C@@H](CC(C)C)C(=O)N1CCC[C@H]1C(=O)N1CCC[C@H]1C(=O)N[C@H](C(=O)N[C@@H](CC(N)=O)C(=O)N[C@H](C(=O)NCC(=O)N[C@@H](CO)C(=O)N[C@@H](CC(N)=O)C(=O)N[C@H](C(=O)N1C[C@H](O)C[C@H]1C(N)=O)[C@@H](C)O)C(C)C)[C@@H](C)O
As for B1, in data set [2], the EC50 (luciferase assay, amylin receptor/CRE-luc CHO cells) amounted to 0.03 nM and the Relative activity (the EC50 ratio of Cagrilintide to the compound) was 184%.

B2: M38 (peptide)
peptide: {C16 diacid-γGlu}-ASQLSTAATQRLADFLRHSSNNLKPILPPTNVGSNT[Hyp]-NH2
SMILES: CC[C@H](C)[C@H](NC(=O)[C@@H]1CCCN1C(=O)[C@H](CCCCN)NC(=O)[C@H](CC(C)C)NC(=O)[C@H](CC(N)=O)NC(=O)[C@H](CC(N)=O)NC(=O)[C@H](CO)NC(=O)[C@H](CO)NC(=O)[C@H](Cc1c[nH]cn1)NC(=O)[C@H](CCCNC(=N)N)NC(=O)[C@H](CC(C)C)NC(=O)[C@H](Cc1ccccc1)NC(=O)[C@H](CC(=O)O)NC(=O)[C@H](C)NC(=O)[C@H](CC(C)C)NC(=O)[C@H](CCCNC(=N)N)NC(=O)[C@H](CCC(N)=O)NC(=O)[C@@H](NC(=O)[C@H](C)NC(=O)[C@H](C)NC(=O)[C@@H](NC(=O)[C@H](CO)NC(=O)[C@H](CC(C)C)NC(=O)[C@H](CCC(N)=O)NC(=O)[C@H](CO)NC(=O)[C@H](C)NC(=O)CC[C@H](NC(=O)CCCCCCCCCCCCCCC(=O)O)C(=O)O)[C@@H](C)O)[C@@H](C)O)C(=O)N[C@@H](CC(C)C)C(=O)N1CCC[C@H]1C(=O)N1CCC[C@H]1C(=O)N[C@H](C(=O)N[C@@H](CC(N)=O)C(=O)N[C@H](C(=O)NCC(=O)N[C@@H](CO)C(=O)N[C@@H](CC(N)=O)C(=O)N[C@H](C(=O)N1C[C@H](O)C[C@H]1C(N)=O)[C@@H](C)O)C(C)C)[C@@H](C)O
As to B2, in data set [2], the EC50 (luciferase assay, amylin receptor/CRE-luc CHO cells) stood at 0.03 nM and the Relative activity (the EC50 ratio of Cagrilintide to the compound) was 181%.
